{"source": "patent US20170224936A1", "about": "“Nasal treatment delivery device with carbon dioxide and saline, and methods” (priority 2016, published 2017)", "origin": "cited, not measured here", "key": {"[1]": {"settings": "carbon dioxide gas treatments per Capnia prior art to Rasor et al"}}, "data": [{"smiles": "O=C=O", "note": "[CO(2), carbon dioxide]", "values": [{"measurement": "severe stinging", "setting": "[1]", "result": "had occurred"}, {"measurement": "sneezes", "setting": "20-second exposure, compared with no treatment, p=0.05", "result": "significant reduction"}, {"measurement": "histamine levels in ipsilateral nasal secretions", "setting": "after pretreatment with CO(2)", "result": "did not increase"}, {"measurement": "ipsilateral secretion weights", "setting": "compared with no treatment", "result": "numerically reduced"}, {"measurement": "bilateral runny nose symptoms", "setting": "compared with no treatment, p=0.01", "result": "significant reduction"}, {"measurement": "contralateral secretion weights", "setting": "compared with no treatment, p=0.04", "result": "significant reduction"}, {"measurement": "sensation during exposure", "setting": "during exposure to CO(2)", "result": "transient burning sensation"}]}]}
